10 compounds from ChEMBL document CHEMBL1828565, “Potential AMPK activators of cucurbitane triterpenoids from Siraitia grosvenorii Swingle” (Bioorg Med Chem, 2011) can be followed below.

For assay [1], the target named is T1, AMP-activated protein kinase, AMPK (Homo sapiens) (UniProt P54646+O43741+P54619+Q9UGJ0+Q9Y478+Q13131+Q9UGI9). In words: Activation of AMPK in human HepG2 cells assessed as increase in AMPK phosphorylation at 1 to 20 uM after 30 mins by Western blotting. The assay is classed as cell-based. On the technique in general: Immunoblotting shows a protein as a band on a membrane.

The target of assay [2] is T1, AMP-activated protein kinase, AMPK (Homo sapiens). In words: Activation of AMPK in human HepG2 cells assessed as increase in AMPK phosphorylation at 10 uM after 30 mins by Western blotting. The assay is classed as cell-based.

Molecules are shown by their SMILES. Activity calls are given as the source filed them. The rule behind the calls is not given here.

Take `C[C@H](CC[C@@H](O[C@@H]1O[C@H](CO[C@@H]2O[C@H](CO)[C@@H](O)[C@H](O)[C@H]2O)[C@@H](O)[C@H](O)[C@H]1O[C@@H]1O[C@H](CO)[C@@H](O)[C@H](O)[C@H]1O)C(C)(C)O)[C@H]1CC[C@@]2(C)[C@@H]3CC=C4[C@@H](CC[C@H](O[C@@H]5O[C@H](CO[C@@H]6O[C@H](CO)[C@@H](O)[C@H](O)[C@H]6O)[C@@H](O)[C@H](O)[C@H]5O)C4(C)C)[C@]3(C)[C@H](O)C[C@]12C`: in assay [1], the outcome was inactive. The same measure, in the same setting: the value for `COC(C)(C)[C@H](O)CC[C@@H](C)[C@H]1CC[C@@]2(C)[C@@H]3CC=C4[C@@H](CC[C@H](O)C4(C)C)[C@]3(C)[C@H](O)C[C@]12C` was “Active”; that for `CC(C)C(=O)CC[C@@H](C)[C@H]1CC[C@@]2(C)[C@@H]3CC=C4[C@@H](CC[C@H](O)C4(C)C)[C@]3(C)[C@H](O)C[C@]12C` was “Active”. On the same count and under the same terms, the value for `C[C@H](CC[C@@H](O)C(C)(C)O)[C@H]1CC[C@@]2(C)[C@@H]3CC=C4[C@@H](CC[C@H](O)C4(C)C)[C@]3(C)[C@H](O)C[C@]12C` was “Active”; that for `C[C@H](CC[C@@H](O)C(C)(C)O)[C@H]1CC[C@@]2(C)[C@@H]3CC=C4[C@@H](CC[C@H](O)C4(C)C)[C@]3(C)C(=O)C[C@]12C` was “Active”.

On to `CC(C)C(=O)CC[C@@H](C)[C@H]1CC[C@@]2(C)[C@@H]3CC=C4[C@@H](CC[C@@H](O)C4(C)C)[C@]3(C)[C@H](O)C[C@]12C`, for which the outcome in assay [2] was Active.

Consider `CC(C)C(=O)CC[C@@H](C)[C@H]1CC[C@@]2(C)[C@@H]3CC=C4[C@@H](CC[C@H](O)C4(C)C)[C@]3(C)C(=O)C[C@]12C`, for which the result in assay [1] was Active. Regarding `COc1ccc2cc3[n+](cc2c1OC)CCc1cc2c(cc1-3)OCO2`, the outcome in assay [1] was Active. The same measure, in the same setting: with `COC(C)(C)[C@H](O)CC[C@@H](C)[C@H]1CC[C@@]2(C)[C@@H]3CC=C4[C@@H](CC[C@H](O)C4(C)C)[C@]3(C)C(=O)C[C@]12C` the entry was “Active”; with `C[C@H](CC[C@@H](O)C(C)(C)O)[C@H]1CC[C@@]2(C)[C@@H]3CC=C4[C@@H](CC[C@@H](O)C4(C)C)[C@]3(C)[C@H](O)C[C@]12C`, “Active”.
